Experimental data taken from patent US12122761B2, “2-azaspiro[3.4]octane derivatives as M4 agonists” (NOVARTIS AG, priority 2019, dated 2024).

What was measured:
[1] = biological target: T1, human cloned CHRM4 receptor (M4_CHO cells) (Homo sapiens, UniProt P08173); assay: CHRM4 Ca++ Flux Assay (agonist mode, FDSS 7000EX); format: cell-based; details: for Emax: Percent Activity, read-out: M4 FDSS PA; for EC50: geometric mean if tested more than once, read-out: M4 FDSS EC50
T1 construct: expressed in transfected cells; host or cells: CHO-K1
T1 sequence (P08173 1-479): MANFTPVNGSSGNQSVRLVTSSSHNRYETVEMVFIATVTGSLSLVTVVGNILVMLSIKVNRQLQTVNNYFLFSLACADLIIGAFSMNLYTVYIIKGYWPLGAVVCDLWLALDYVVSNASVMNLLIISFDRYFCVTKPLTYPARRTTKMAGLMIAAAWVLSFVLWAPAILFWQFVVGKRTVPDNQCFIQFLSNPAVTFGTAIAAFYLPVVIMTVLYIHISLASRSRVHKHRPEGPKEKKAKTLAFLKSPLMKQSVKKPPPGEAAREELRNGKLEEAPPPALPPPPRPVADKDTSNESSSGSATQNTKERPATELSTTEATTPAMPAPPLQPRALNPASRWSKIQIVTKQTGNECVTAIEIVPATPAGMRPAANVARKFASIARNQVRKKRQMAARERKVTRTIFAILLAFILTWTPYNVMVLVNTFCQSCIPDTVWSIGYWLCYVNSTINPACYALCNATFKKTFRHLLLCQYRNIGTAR
Procedure, shortened: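 Agonist-mode response was expressed as percent of the Carbachol EC100 and fitted with four-parameter nonlinear regression over an 11-point triplicate dose series. Intracellular Ca++ was tracked for 3 min by fluorescent dye in CHO-K1 cells stably expressing human CHRM4. Cells were preincubated 60 min with 20 μM ATP in buffer containing 2.5 mM probenecid.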

[2] = biological target: T2, human cloned CHRM5 receptor (M5_CHO) (Homo sapiens, UniProt P08912); assay: CHRM5 Ca++ Flux Assay (agonist mode, FDSS 7000EX); format: cell-based; details: for Emax: Percent Activity measured to EC100 of Carbachol, read-out: M5 FDSS PA; for EC50: agonist mode, geometric mean if tested more than once, read-out: M5 FDSS EC50
T2 construct: expressed in transfected cells; host or cells: CHO (M5_CHO)
T2 sequence (P08912 1-532): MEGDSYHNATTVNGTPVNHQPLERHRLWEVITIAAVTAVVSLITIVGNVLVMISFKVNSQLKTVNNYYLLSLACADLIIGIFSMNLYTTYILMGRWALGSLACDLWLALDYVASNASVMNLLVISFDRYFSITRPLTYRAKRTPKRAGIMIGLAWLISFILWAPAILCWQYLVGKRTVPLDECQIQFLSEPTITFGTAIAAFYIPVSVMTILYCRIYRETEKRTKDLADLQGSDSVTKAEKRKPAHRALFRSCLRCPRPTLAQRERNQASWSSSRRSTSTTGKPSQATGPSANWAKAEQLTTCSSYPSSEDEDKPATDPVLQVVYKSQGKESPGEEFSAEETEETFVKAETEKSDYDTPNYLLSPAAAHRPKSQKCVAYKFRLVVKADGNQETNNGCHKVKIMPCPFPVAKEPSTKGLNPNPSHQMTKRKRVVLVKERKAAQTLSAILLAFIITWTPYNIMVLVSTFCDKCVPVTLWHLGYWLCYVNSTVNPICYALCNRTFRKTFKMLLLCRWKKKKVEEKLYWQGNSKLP
Procedure, shortened: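 Agonist-mode calcium flux: 11-point dose responses, triplicate wells, fluorescence followed for 3 minutes. Cells are M3_CHO or M5_CHO lines (human receptors) with Ca++ indicator in probenecid-containing HEPES/HBSS buffer. Percent activity is referenced to carbachol EC100, and curves come from four-parameter nonlinear regression.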

Emax [1] | EC50 [1] | Emax [2] | EC50 [2] | SMILES
61% | 9 nM | 0% | > 25000 nM | O=C(C1COC1)N1CC2(CC[C@@H](N3CCC(c4ccccc4OC4CCCC4)CC3)C2)C1 [Example 7G, (R)-(6-(4-(2-(cyclopentyloxy)phenyl)piperidin-1-yl)-2-azaspiro[3.4]octan-2-yl)(oxetan-3-yl)methanone]
42% | 27 nM | 18% | 1120 nM | O=C(C1COC1)N1CC2(CC[C@@H](N3CCC(c4ccccc4OCCOC(F)(F)F)CC3)C2)C1 [Example 7DD, (R)-oxetan-3-yl(6-(4-(2-(2-(trifluoromethoxy)ethoxy)phenyl)piperidin-1-yl)-2-azaspiro[3.4]octan-2-yl)methanone]
87% | 3 nM | 0% | > 25000 nM | Fc1cccc(C2CCN([C@@H]3CCC4(C3)CN(c3nncs3)C4)CC2)c1OC1COC1 [Example 3E, (R)-2-(6-(4-(3-fluoro-2-(oxetan-3-yloxy)phenyl)piperidin-1-yl)-2-azaspiro[3.4]octan-2-yl)-1,3,4-thiadiazole]
39% | 4 nM | 0% | > 25000 nM | O=C(C1COC1)N1CC2(CC[C@@H](N3CCC(c4ccccc4Oc4nccs4)CC3)C2)C1 [Example 7C, (R)-oxetan-3-yl(6-(4-(2-(thiazol-2-yloxy)phenyl)piperidin-1-yl)-2-azaspiro[3.4]octan-2-yl)methanone]
35% | 100 nM | 0% | > 25000 nM | O=C(N1CC2(CC[C@H](N3CCC(c4ccccc4C4CCOCC4)CC3)C2)C1)C1(F)CC1 (single isomer, unassigned) [Example 9M]
50% | 9 nM | 13% | 1640 nM | O=C(C1COC1)N1CC2(CC[C@@H](N3CCC(c4ccccc4OCC4(C(F)(F)F)CC4)CC3)C2)C1 [Example 7II, (R)-oxetan-3-yl(6-(4-(2-((1-(trifluoromethyl)cyclopropyl)methoxy)phenyl)piperidin-1-yl)-2-azaspiro[3.4]octan-2-yl)methanone]
34% | 19 nM | 0% | > 25000 nM | CC(C)(O)CCOc1ccccc1C1CCN([C@@H]2CCC3(C2)CN(c2ncns2)C3)CC1 [Example 3L, (R)-4-(2-(1-(2-(1,2,4-thiadiazol-5-yl)-2-azaspiro[3.4]octan-6-yl)piperidin-4-yl)phenoxy)-2-methylbutan-2-ol]
71% | 4 nM | 0% | > 25000 nM | O=C(C1COC1)N1CC2(CC[C@@H](N3CCC(c4ccccc4OC4CC4)CC3)C2)C1 [Example 7A, (R)-(6-(4-(2-cyclopropoxyphenyl)piperidin-1-yl)-2-azaspiro[3.4]octan-2-yl)(oxetan-3-yl)methanone]
59% | 3 nM | 0% | > 25000 nM | c1ccc(C2CCN([C@@H]3CCC4(C3)CN(c3cncnc3)C4)CC2)c(OC2CC3(COC3)C2)c1 [Example 1O, (R)-6-(4-(2-((2-oxaspiro[3.3]heptan-6-yl)oxy)phenyl)piperidin-1-yl)-2-(pyrimidin-5-yl)-2-azaspiro[3.4]octane]
50% | 5 nM | 0% | > 25000 nM | O=C(C1COC1)N1CC2(CC[C@@H](N3CCC(c4ccc(F)cc4OC(F)F)CC3)C2)C1 [Example 6B, (R)-(6-(4-(2-(difluoromethoxy)-4-fluorophenyl)piperidin-1-yl)-2-azaspiro[3.4]octan-2-yl)(oxetan-3-yl)methanone]
73% | 2 nM | 0% | > 25000 nM | O=C(C1COC1)N1CC2(CC[C@@H](N3CCC(c4ccccc4OC(F)(F)F)CC3)C2)C1 [Example 12A, (R)-oxetan-3-yl(6-(4-(2-(trifluoromethoxy)phenyl)piperidin-1-yl)-2-azaspiro[3.4]octan-2-yl)methanone]
30% | 18 nM | 0% | > 25000 nM | COc1ccccc1C1CCN([C@@H]2CCC3(C2)CN(c2nc(C)ns2)C3)CC1 [Example 3M, (R)-5-(6-(4-(2-methoxyphenyl)piperidin-1-yl)-2-azaspiro[3.4]octan-2-yl)-3-methyl-1,2,4-thiadiazole]
76% | 9 nM | 0% | > 25000 nM | CC(C)Oc1ccccc1C1CCN([C@@H]2CCC3(C2)CN(C(=O)C2COC2)C3)CC1 [Example 7K, (R)-(6-(4-(2-isopropoxyphenyl)piperidin-1-yl)-2-azaspiro[3.4]octan-2-yl)(oxetan-3-yl)methanone]
82% | 6 nM | 0% | > 25000 nM | c1ccc(C2CCN([C@@H]3CCC4(C3)CN(c3nnco3)C4)CC2)c(-c2ncco2)c1 [Example 2M, (R)-2-(6-(4-(2-(oxazol-2-yl)phenyl)piperidin-1-yl)-2-azaspiro[3.4]octan-2-yl)-1,3,4-oxadiazole]
74% | 1 nM | 0% | > 25000 nM | c1ccc(C2CCN([C@@H]3CCC4(C3)CN(c3cncnc3)C4)CC2)c(OC2COC2)c1 [Example 1K, (R)-6-(4-(2-(oxetan-3-yloxy)phenyl)piperidin-1-yl)-2-(pyrimidin-5-yl)-2-azaspiro[3.4]octane]
– | 6 nM | 0% | – | CCOc1ccccc1C1CCN([C@@H]2CCC3(C2)CN(C(=O)C2COC2)C3)CC1 [Example 7J, (R)-(6-(4-(2-ethoxyphenyl)piperidin-1-yl)-2-azaspiro[3.4]octan-2-yl)(oxetan-3-yl)methanone]
57% | 7 nM | 0% | > 25000 nM | CC(C)(O)COc1ccccc1C1CCN([C@@H]2CCC3(C2)CN(c2nncs2)C3)CC1 [Example 3G, (R)-1-(2-(1-(2-(1,3,4-thiadiazol-2-yl)-2-azaspiro[3.4]octan-6-yl)piperidin-4-yl)phenoxy)-2-methylpropan-2-ol]
62% | < 0.4 nM | 0% | > 25000 nM | c1ccc(C2CCN([C@@H]3CCC4(C3)CN(c3cncnc3)C4)CC2)c(OCC2COC2)c1 [Example 1N, (R)-6-(4-(2-(oxetan-3-ylmethoxy)phenyl)piperidin-1-yl)-2-(pyrimidin-5-yl)-2-azaspiro[3.4]octane]
48% | 4 nM | 0% | > 25000 nM | CC(C)(O)CCOc1ccccc1C1CCN([C@@H]2CCC3(C2)CN(c2nnco2)C3)CC1 [Example 1F]
48% | 7 nM | 14% | 974 nM | O=C(C1COC1)N1CC2(CC[C@@H](N3CCC(c4ccccc4OCCC(F)(F)F)CC3)C2)C1 [Example 7GG, (R)-oxetan-3-yl(6-(4-(2-(3,3,3-trifluoropropoxy)phenyl)piperidin-1-yl)-2-azaspiro[3.4]octan-2-yl)methanone]
79% | 1 nM | 0% | 4390 nM | c1ccc(C2CCN([C@@H]3CCC4(C3)CN(c3nnco3)C4)CC2)c(OC2COC2)c1 [Example 1D, (R)-2-(6-(4-(2-(oxetan-3-yloxy)phenyl)piperidin-1-yl)-2-azaspiro[3.4]octan-2-yl)-1,3,4-oxadiazole]
53% | 11 nM | 0% | > 25000 nM | CC(C)Oc1cc(F)ccc1C1CCN([C@@H]2CCC3(C2)CN(C(=O)C2COC2)C3)CC1 [Example 6D, (R)-(6-(4-(4-fluoro-2-isopropoxyphenyl)piperidin-1-yl)-2-azaspiro[3.4]octan-2-yl)(oxetan-3-yl)methanone]
